Patent US4108726A, “Sarcoidosis test” (Research Corporation, priority 1976, dated 1978)
One block for each compound: values may come before it. Where a SMILES comes first, the peptide text is derived from it. The star is where a group is joined. Bz = O=C(c1ccccc1)*

Legend:
[1] = tested on: L-histidyl-L-leucine peptidase; experiment: Hydrolysis of L-histidyl-L-leucine by human serum peptidase, fluorimetric; type: biochemical; conditions: estimated from 1/v-1/S plots
Protocol: Hydrolysis of the product L-histidyl-L-leucine was determined fluorimetrically by adding L-histidyl-L-leucine to an assay mixture which contained buffer and serum and was handled as described for the enzyme assays, including a zero time control. Hydrolysis was accompanied by a decrease in fluorescence from that obtained with the initial concentration as determined in the zero time control. The quantity hydrolyzed was determined by multiplying the fraction hydrolyzed (decrease in FI/initial FI) by the initial concentration. No correction was made for the fluorescence of L-histidine since it was only about 8% of the fluorescence of L-histidyl-L-leucine.
The activity of the L-histidyl-L-leucine hydrolyzing activity was measured in several sera under the conditions of the orginal assay (50 μl sera in 125 μl 0.1 M K phosphate-0.3 M NaCl, pH 8.3) using as substrate 0.2 mM L-histidyl-L-leucine, a concentration typically formed in the angiotensin converting enzyme reaction mixture. […] The velocity of the L-histidyl-L-leucine peptidase reaction was determined at varying L-histidyl-L-leucine concentrations. The Km for L-histidyl-L-leucine of the peptidase was estimated from l/.nu.-l/S plots, see Lineweaver, H. and Burk, D. (1934). J. Amer. Chem. Soc. 56, 658, to be 0.16 mM. […]

[2] = tested on: porcine lung L-histidyl-L-leucine peptidase; conditions: Lee, Larue and Wilson 1971; cited from earlier work
[3] = tested on: angiotensin converting enzyme of rabbit lung; conditions: rabbit lung enzyme system; Cushman and Cheung 1971; cited from earlier work
[4] = Apparent hydrolysis of hippuryl-L-histidyl-L-leucine in NaOH; type: physicochemical; conditions: 30 minutes between NaOH addition and fluorescence development
Protocol: (§1) Ten μl of serum was added to 240 μl of substrate-buffer solution at 37° C. in a 12 × 75 mm test tube tightly covered with Parafilm, mixed with a vortex mixer and incubated for 15 minutes at 37° C. Duplicate reaction mixtures were stopped by addition of 1.45 ml of 0.28 M NaOH and mixing with a vortex mixer. A substrate-buffer blank was similarly treated at the same time except that enzyme was added immediately after NaOH, and was an important control for the slow breakdown of hippuryl-L-histidine-L-leucine in NaOH. In order to keep the blank low, the development of fluorescence should be started as soon as possible after the addition of NaOH.
When large quantities of enzyme were used, this effect was small compared to the total fluorescence developed. However, the increase in fluorescence intensity of the blank in 30 minutes was equivalent to 1.3 nmol/min/ml and would result in a value 4% below the true one for an enzyme activity of 34 nmol/min/ml, which is in the normal range. To avoid spuriously high blanks due to base catalyzed hydrolysis, addition of NaOH to the blank, followed by enzyme, was made at the same time that NaOH was added to terminate the enzymatic reaction of the reacted samples.

[5] = target: serum angiotensin-converting enzyme (Homo sapiens, UniProt P12821); experiment: Spectrofluorimetric serum angiotensin converting enzyme assay with hippuryl-L-histidyl-L-leucine substrate; type: biochemical; conditions: FIG. 2
serum angiotensin-converting enzyme, sequence (P12821 30-1232): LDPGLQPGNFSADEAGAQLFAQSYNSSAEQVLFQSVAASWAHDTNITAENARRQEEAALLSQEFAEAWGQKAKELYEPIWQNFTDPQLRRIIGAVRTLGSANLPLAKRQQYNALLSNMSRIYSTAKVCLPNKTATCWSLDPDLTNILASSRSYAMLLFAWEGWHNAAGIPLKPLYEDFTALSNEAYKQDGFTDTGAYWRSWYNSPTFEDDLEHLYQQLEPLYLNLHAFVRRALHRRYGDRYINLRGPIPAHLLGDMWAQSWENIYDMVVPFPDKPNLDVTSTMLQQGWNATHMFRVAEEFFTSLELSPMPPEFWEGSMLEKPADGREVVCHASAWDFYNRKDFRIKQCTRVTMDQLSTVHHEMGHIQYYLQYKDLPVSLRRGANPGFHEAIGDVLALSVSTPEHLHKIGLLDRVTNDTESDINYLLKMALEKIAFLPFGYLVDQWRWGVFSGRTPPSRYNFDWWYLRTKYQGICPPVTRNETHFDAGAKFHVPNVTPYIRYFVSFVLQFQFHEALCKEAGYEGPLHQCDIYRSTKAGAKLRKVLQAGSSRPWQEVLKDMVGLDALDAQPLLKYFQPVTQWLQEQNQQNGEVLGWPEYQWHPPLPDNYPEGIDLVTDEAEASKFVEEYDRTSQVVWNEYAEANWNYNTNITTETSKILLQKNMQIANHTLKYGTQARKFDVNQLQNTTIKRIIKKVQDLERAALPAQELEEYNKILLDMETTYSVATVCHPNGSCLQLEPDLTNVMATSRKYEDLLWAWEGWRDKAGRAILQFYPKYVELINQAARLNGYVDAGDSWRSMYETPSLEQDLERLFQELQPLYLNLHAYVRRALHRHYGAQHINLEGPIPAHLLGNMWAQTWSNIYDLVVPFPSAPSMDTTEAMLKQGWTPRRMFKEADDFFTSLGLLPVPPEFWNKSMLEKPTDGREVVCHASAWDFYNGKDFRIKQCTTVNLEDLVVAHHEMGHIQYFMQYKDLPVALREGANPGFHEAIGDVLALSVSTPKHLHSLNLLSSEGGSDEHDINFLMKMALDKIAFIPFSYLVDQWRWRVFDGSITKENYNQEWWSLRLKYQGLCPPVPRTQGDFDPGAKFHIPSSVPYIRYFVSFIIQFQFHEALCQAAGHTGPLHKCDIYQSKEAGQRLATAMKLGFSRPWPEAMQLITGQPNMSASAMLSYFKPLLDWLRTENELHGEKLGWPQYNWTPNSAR
Protocol: Substrate-buffer solution was prepared by mixing buffer, substrate and water at a ratio of 1:1:2.8 (final concentration in the assay mixture; 0.1M K phosphate, pH 8.3, 0.3M NaCl; 5mM hippuryl-L-histidyl-L-leucine).
as §1, with “A substrate-buffer blank was similarly treated at the same time except that enzyme was added immediately after NaOH, and was an important control for the slow breakdown of hippuryl-L-histidine-L-leucine in NaOH.” left out
One hundred μl of o-phthaldialdehyde reagent was added to each tube which was mixed with a vortex mixer. […] The fluorescence was read in a 1 cm rectangular fluorescence cuvette in a Perkin-Elmer MPF-4 fluorimeter with 8 mm entrance and exit slits and a 7.5 V energy output between 30 and 90 minutes after addition of HCl, during which time it was stable. The excitation wavelength was 360 nm and the emission fluorescence wavelength was 500 nm.
Enzyme activity in nmoles L-histidyl-L-leucine/min/ml serum was calculated by two methods. The first is applicable for ratios of up to 2 of corrected assay/standard fluorescence. […]

[6] = tested on: serum angiotensin converting enzyme; experiment: Serum angiotensin converting enzyme assay with angiotensin I as substrate; type: biochemical, human
Protocol: Three mg of angiotensin I were dissolved in 10 ml buffer, 0.03125 M NaCl and 0.104 M potassium phosphate, pH 7.5. The optical density (O.D.) of the solution at 275 nM was measured against the buffer. The O.D. of the angiotensin I solution was adjusted to 0.272 by either adding more buffer or solid angiotensin I. Based on a mMolar extintion coefficient of 1.31 at 275 nM, the final concentration in the assay was 0.2 mM angiotensin I which is about 4-5 times the Km of this enzyme previously measured. Two hundred forty μl of the angiotensin I solution were added to each tube, then warmed to 37° C. […] of serum were added to each tube, sealed and incubated for 1 hour. […]
For fluorescence development, 100 μl of 2% o-phthaldialdehyde in methanol were added to each tube and mixed with a vortex mixer. […] The fluorescence was read in a 1 cm rectangular fluorescence cuvette in a Perkin-Elmer MPF-4 fluorimeter with a 4 mm entrance and 8 mm exit slit and a 7.5 V energy output between 30-90 minutes after the addition of HCl, during which time the fluorescence was stable. The excitation wavelength was […] and the emission fluorescence wavelength was […].
Calculation of enzymatic activity in nmoles L-histidyl-L-leucine released/min/ml of serum was calculated as follows: Angiotensin converting enzyme activity, nmole his-leu released/min/ml serum = [formula]

- Km [1]: 160 µM
Compound: CC(C)C[C@H](NC(=O)[C@@H](N)Cc1c[nH]cn1)C(=O)O [L-histidyl-L-leucine] (H-His-Leu-OH)
- Km [2]: 200 µM

- Increase in fluorescence intensity of the blank, as equivalent enzyme activity (base-catalyzed hydrolysis) [4]: 1.3 nmol/min/mL
- Substrate concentration at maximum activity [5]: 5 mM
- Substrate concentration at which inhibition was noted [5]: 15 mM
Compound: CC(C)C[C@H](NC(=O)[C@H](Cc1c[nH]cn1)NC(=O)CNC(=O)c1ccccc1)C(=O)O [hippuryl-L-histidyl-L-leucine, Hippuryl-L-histidyl-L-leucine] (Bz-Gly-His-Leu-OH)
- Km [3]: 2600 µM
- Substrate concentration above which inhibition was present [3]: above 10 mM

- Activity as substrate compared with hippuryl-L-histidyl-L-leucine [6]: considerably lower
Compound: angiotensin I (DRVYIHPFHL; Angiotensin-1; UniProt P01019 25-34, looked up) [decapeptide natural substrate of angiotensin converting enzyme]
